Laboratory results taken from paper PMC12930396, “Positive modulators of N-methyl-D-aspartate receptor: structure–activity relationship study on steroidal C-17 and C-20 oxime ethers” (RSC Advances, 2026).
“Also recorded” adds a separate entry of the source.

Assays:
in vitro [1] = settings: for PAMPA permeability Retention (mass retention): 5 h, 100 µM; for PAMPA permeability Retention (mass retention) / Papp at 5 h, 100 µM: pH 7.4; for Papp at 5 h, 100 µM: PAMPA
Experimental: Permeability was quantified using permeability coefficients (Pe) and mass retention, the latter representing the proportion of compound retained in the membrane.
Permeation experiments were conducted in polystyrene 96-well filter plates with PVDF membrane pre-coated with structured layers of phospholipids (Corning Gentest™) according to the manufacturer's instructions. Briefly, the plate was warmed to room temperature, and meanwhile, the solutions of the compounds were diluted from 10 mM DMSO stocks to TRIS–HCl buffer pH 7.4 to reach a 100 µM final concentration. The DMSO concentration in the samples was 1%. Then, 300 µL of these solutions were transferred into the donor (receiver) plate wells, and 200 µL of the (TRIS) buffer was added to the acceptor (filter) plate wells. The filter plate and receiver plate were assembled and incubated for 5 h on an orbital shaker (300 rpm). After this, the concentration of the tested substances in both the donor and acceptor compartments was determined with use of LC/MS. Liquid chromatography was performed using an ExionLC AD pump and autosampler from Sciex (Framingham, MA, USA). […] The mobile phase flow rate was 300 µL min^−1. The column Synergi Fusion-RP from Phenomenex (Torrance, CA, USA) was used and was kept at 40 °C during the analysis.

in vitro [2] = settings: pH 7.4; for half-life at 10 µM: rat, microsomes
Experimental: The reactions were terminated by the addition of four volumes of ice-cold methanol, mixed vigorously, and left at −20 °C for 1h. After that, the samples were centrifuged and the supernatants were analysed by means of ECHO-MS® System (Sciex, Framingham, MA, USA). Zero time points were prepared by adding ice-cold methanol to the mixture of the compound with cofactors before the addition of microsomes. […] Intrinsic clearance (CLint) was calculated using the following formula: [drawing 4] where V is the incubation volume per milligram of microsomal protein (µL mg^−1) and t1/2 is the microsomal half-life.

GluN1/GluN2B receptors [3] = molecular target: T1, GluN1/GluN2B receptors (Rattus norvegicus, UniProt P35439+Q00960); test: Patch-clamp: modulation of glutamate-induced currents of recombinant GluN1/GluN2B receptors expressed in HEK293 cells; type: cell-based; settings: for Modulatory profile at NMDARs: GluN1/GluN2B in HEK293
T1 construct: expressed in transfected cells; host or cells: HEK293 cells (ATCC No. CRL-1573)
T1 sequence (Q00960 27-1482, other chains not shown): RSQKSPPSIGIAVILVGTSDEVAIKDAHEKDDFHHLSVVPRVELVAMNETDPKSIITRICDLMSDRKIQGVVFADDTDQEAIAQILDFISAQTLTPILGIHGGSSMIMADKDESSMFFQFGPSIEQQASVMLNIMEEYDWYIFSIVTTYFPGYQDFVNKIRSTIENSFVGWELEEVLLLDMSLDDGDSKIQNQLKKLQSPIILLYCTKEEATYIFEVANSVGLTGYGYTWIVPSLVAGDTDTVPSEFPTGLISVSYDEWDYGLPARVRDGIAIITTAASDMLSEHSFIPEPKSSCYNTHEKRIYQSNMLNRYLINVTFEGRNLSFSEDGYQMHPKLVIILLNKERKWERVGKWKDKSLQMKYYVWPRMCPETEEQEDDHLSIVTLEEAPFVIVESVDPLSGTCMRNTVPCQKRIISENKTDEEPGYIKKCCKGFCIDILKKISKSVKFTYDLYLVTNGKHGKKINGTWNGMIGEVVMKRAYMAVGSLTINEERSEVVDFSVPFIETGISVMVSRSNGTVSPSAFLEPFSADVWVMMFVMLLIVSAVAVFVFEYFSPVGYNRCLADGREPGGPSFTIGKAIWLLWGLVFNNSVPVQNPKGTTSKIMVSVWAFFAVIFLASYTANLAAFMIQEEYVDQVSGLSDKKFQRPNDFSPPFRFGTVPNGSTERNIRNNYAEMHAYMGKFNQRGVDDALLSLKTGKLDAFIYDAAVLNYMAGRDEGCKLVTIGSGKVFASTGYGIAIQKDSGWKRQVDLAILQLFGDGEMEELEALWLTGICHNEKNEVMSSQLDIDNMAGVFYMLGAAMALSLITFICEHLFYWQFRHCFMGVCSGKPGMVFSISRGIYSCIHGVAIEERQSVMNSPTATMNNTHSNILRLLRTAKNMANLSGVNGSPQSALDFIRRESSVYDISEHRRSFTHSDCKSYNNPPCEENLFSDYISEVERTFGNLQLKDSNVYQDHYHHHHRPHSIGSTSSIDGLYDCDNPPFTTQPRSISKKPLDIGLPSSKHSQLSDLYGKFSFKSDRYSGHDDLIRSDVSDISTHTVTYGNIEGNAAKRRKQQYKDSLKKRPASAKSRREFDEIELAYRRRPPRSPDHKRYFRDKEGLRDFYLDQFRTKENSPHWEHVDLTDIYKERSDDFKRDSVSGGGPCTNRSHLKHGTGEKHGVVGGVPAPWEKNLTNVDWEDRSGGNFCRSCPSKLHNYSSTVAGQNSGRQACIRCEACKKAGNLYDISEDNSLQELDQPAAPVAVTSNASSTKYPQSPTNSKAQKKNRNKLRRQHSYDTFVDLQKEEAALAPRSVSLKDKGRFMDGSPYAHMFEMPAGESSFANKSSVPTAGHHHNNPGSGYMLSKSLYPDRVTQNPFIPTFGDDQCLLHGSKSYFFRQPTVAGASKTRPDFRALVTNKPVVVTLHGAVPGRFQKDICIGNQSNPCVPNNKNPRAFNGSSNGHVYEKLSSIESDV
Experimental: To investigate the effect of compounds 11–23 on the activity of NMDARs, electrophysiological measurements were performed on HEK293 cells that were co-transfected with cDNAs containing genes encoding for the rat GluN1-1a and GluN2B subunits. The degree of modulation (E; potentiation/inhibition) for the newly synthesized compounds was determined using the following formula: [drawing 1] where Ie is the value of the current amplitude during glutamate and compound coapplication, and Ia is the current amplitude value for glutamate application. […] The results are presented as mean ± standard error of the mean (SEM), with n equal to the number of independent measurements. One-way analysis of variance (ANOVA) was used for multiple comparisons (unless otherwise stated, a value of P ≤ 0.05 was used for the determination of significance).
We have evaluated the relationship between oxime derivatives 11–23 and their modulatory effect on recombinant GluN1/GluN2B receptors. Due to the […] effect of neurosteroid-based PAMs at NMDARs[20,44]
HEK293 cells (American Type Culture Collection, ATCC No. CRL-1573, Rockville, MD, USA) were cultured in Opti-MEM I (Invitrogen, Carlsbad, CA, USA) supplemented with 5% fetal bovine serum (FBS; PAN Biotech, Aidenbach, Germany) at 37 °C in 5% CO2. 24 h before transfection, HEK293 cells were plated in 24-well plates at a density of 2 × 10^5 cells per well. The next day, the cells were transfected with cDNA encoding rat GluN1-1a (GluN1; GenBank accession number U08261)[56] and GluN2B (GenBank accession number M91562)[57] subunits (in the pCI-neo expression vector), along with green fluorescent protein (GFP; in the pQBI 25 vector, Takara, Tokyo, Japan). Briefly, equal amounts (200 ng) of cDNAs encoding GluN1-1a, GluN2B, and GFP were mixed with 0.6 µl of Matra-A reagent (IBA, Gottingen, Germany) in 50 µL of Opti-MEM I and added to confluent HEK293 cells cultured in 24-well plates. After trypsinization, the cells were resuspended in Opti-MEM I containing 1% FBS, supplemented with 20 mM MgCl2, 1 mM D,L-2-amino-5-phosphonovaleric acid, 3 mM kynurenic acid, and 1 µM ketamine, and plated on 30 mm glass coverslips coated with collagen and poly-L-lysine. Transfected cells were identified by GFP epifluorescence. Electrophysiology experiments were performed 24–48 h after transfection.
Whole-cell current recordings, voltage-clamped at a holding potential of −60 mV, were performed at room temperature using a patch-clamp amplifier (Axopatch 200B; Molecular Devices, Sunnyvale, CA, USA) after capacitance and series resistance (<10 MΩ) compensation (80–90%). NMDAR current responses were low-pass filtered at 2 kHz, digitally sampled at 5 kHz, and analysed using pClamp software (version 10.6; Molecular Devices). Patch pipettes (3–5 MΩ), pulled from borosilicate glass, were filled with an intracellular solution (ICS) containing (in mM): 15 CsCl, 10 BAPTA, 3 MgCl2, 1 CaCl2, 120 gluconic acid, 10 HEPES, and 2 ATP-Mg salt (pH adjusted to 7.2 with CsOH). The extracellular solution (ECS) contained (in mM): 160 NaCl, 2.5 KCl, 0.2 EDTA, 10 glucose, 10 HEPES, and 0.7 CaCl2 (pH adjusted to 7.3 with NaOH). NMDAR responses were induced by 1 µM glutamate and 30 µM glycine. 1% DMSO was present in all control and testing solutions. Solution applications were performed using a microprocessor-controlled multibarrel fast-perfusion system with a solution exchange rate around the cells of ∼10 ms.[58]

GluN1/GluN2B receptors [4] = settings: cited from earlier work; for EC50: read-out: EC50, potentiation of GluN1/GluN2B receptor responses
Stability in rat plasma = type: in vitro ADME; settings: rat, plasma
Experimental: Compounds were prepared as 1.6 mg mL^−1 stock solutions in methanol. Then, 20 µL of stock solution was added to 1000 µL of rat plasma (BioIVT, Cat. No. RAT00PLLH-0102307), maintained at 37 °C. Aliquots (50 µL) withdrawn at 0, 8, and 24 h were analyzed by HPLC. An aliquot of plasma was extracted with methanol (450 µL) containing an internal standard, and the solution was vortexed (20 s) and centrifuged at 13 500 rpm for 10 min. The supernatant was transferred to an autosampler vial, and 10 µL was injected into an LC-MS system. The samples were analyzed using an Agilent 6230 TOF LC/MS. Samples were separated on a Waters ACQUITY UPLC CSH Phenyl-Hexyl column (100 × 2.1, 130 Å, 1.7 µm) at a flow rate of 0.3 mL min^−1. […]. The temperature, the flow rate of the nitrogen drying gas, the pressure of the nitrogen nebulizing gas, and the flow rate of the sheath gas were set at 325 °C, 10 L min^−1, 40 psi, […], and 11 L min^−1, respectively. Results are represented as a percentage of the compound remaining in spiked plasma.

C/C(=N\OC(C)C)[C@H]1CCC2C3CC=C4C[C@@H](OC(=O)CCCC(=O)O)CC[C@]4(C)C3CC[C@@]21C (stereo partly drawn) [Compound 19, 20-Oxo-pregn-5-en-3β-yl hemiglutarate O-isopropyloxime]
PAMPA permeability Retention (mass retention) (in vitro [1]): 99% | Metabolic stability in rat liver microsomes (in vitro [2]; 1 h, 10 µM): no detectable metabolism after 60 min | half-life at 10 µM (in vitro [2]): > 1 h | Modulatory profile at NMDARs (GluN1/GluN2B receptors [3]): not identified as PAMs; also recorded: complex, concentration-dependent activity profile | inhibition at 3 µM (GluN1/GluN2B receptors [3]; HEK293, at 3 µM compound, 1 µM glutamate, read-out: NAM effect (degree of inhibition)): 27% | PAM effect (degree of potentiation) (GluN1/GluN2B receptors [3]; at 10 µM compound, 1 µM glutamate): 81 ± 20% | PAM effect (degree of potentiation) (GluN1/GluN2B receptors [3]; at 30 µM compound, 1 µM glutamate): 169 ± 55%

C[C@]12CC[C@H](OC(=O)CCCC(=O)O)CC1=CCC1C2CC[C@]2(C)C(=O)CCC12 (some centres unmarked) [Compound 5]
Emax, potentiation of GluN1/GluN2B receptor responses (GluN1/GluN2B receptors [4]): 154% | EC50 (GluN1/GluN2B receptors [4]): 151 µM

C[C@@]12CCCC1C1CC[C@@H]3C[C@H](OC(=O)CCC(=O)O)CC[C@]3(C)C1CC2 (some centres unmarked) [Compound 2]
Emax, potentiation of GluN1/GluN2B receptor responses (GluN1/GluN2B receptors [4]): 452% | EC50 (GluN1/GluN2B receptors [4]): 7.4 µM

CO/N=C(\C)[C@H]1CCC2C3CC=C4C[C@@H](OC(=O)CCCC(=O)O)CC[C@]4(C)C3CC[C@@]21C (stereo partly drawn) [Compound 17, 20-Oxo-pregn-5-en-3β-yl hemiglutarate O-methyloxime]
PAMPA permeability Retention (mass retention) (in vitro [1]): 95% | Papp at 5 h, 100 µM (in vitro [1]): 5.5 ×10⁻⁶ cm/s | half-life at 10 µM (in vitro [2]): > 1 h | Potency relative to PES (GluN1/GluN2B receptors [3]; EC50 compared with PES): over 3.5 fold | h ± SEM (apparent Hill coefficient) (GluN1/GluN2B receptors [3]; concentration-response fit, mean ± SEM): 1.6 ± 0.1 | EC50 (GluN1/GluN2B receptors [3]; half-maximal potentiation of currents evoked by 1 µM glutamate, HEK293, mean ± SEM): 6.1 ± 0.7 µM | Emax (GluN1/GluN2B receptors [3]; maximal potentiation of currents evoked by 1 µM glutamate and 30 µM glycine, HEK293, mean ± SEM): 503 ± 85%

C[C@]12CC[C@H](OC(=O)CCCCCCC(=O)O)CC1=CCC1C2CC[C@]2(C)C(=O)CCC12 (some centres unmarked) [Compound 8]
Emax, potentiation of GluN1/GluN2B receptor responses (GluN1/GluN2B receptors [4]): 189% | EC50 (GluN1/GluN2B receptors [4]): 49 µM

C[C@]12CC[C@H](OC(=O)CCCCCC(=O)O)CC1=CCC1C2CC[C@]2(C)C(=O)CCC12 (some centres unmarked) [Compound 7]
Emax, potentiation of GluN1/GluN2B receptor responses (GluN1/GluN2B receptors [4]): 187% | EC50 (GluN1/GluN2B receptors [4]): 82 µM

C[C@]12CC[C@H](OC(=O)CCCC(=O)O)CC1=CCC1C2CC[C@]2(C)/C(=N/O)CCC12 (stereo partly drawn) [Compound 14, 17-Oxo-androst-5-en-3β-yl 3-hemiglutarate 17-oxime]
PAMPA permeability (in vitro [1]): moderate permeability | PAMPA permeability Retention (mass retention) (in vitro [1]): 17% | Papp at 5 h, 100 µM (in vitro [1]): 26.3 ×10⁻⁶ cm/s | half-life at 10 µM (in vitro [2]): > 1 h | Stability in rat plasma (% remaining) 8 h (Stability in rat plasma; 8 h): 61.1 ± 1.6 % remaining | Stability in rat plasma (% remaining) 24 h (Stability in rat plasma; 24 h): 56.3 ± 2.5 % remaining | Modulatory profile at NMDARs (GluN1/GluN2B receptors [3]): not identified as PAMs; also recorded: lost its PAM-activity
